Assay results taken from patent US12295952B2, “Methods of treating heart failure with cardiac sarcomere activators” (Amgen Inc., priority 2017, dated 2025).
“And” between values parts separate entries of the source, which are not always exact repeats. Equal values may be shown once. “Also recorded” adds a separate entry of the source.

Key:
[1] = COSMIC-HF: concentrations of omecamtiv mecarbil in plasma; format: in vivo; settings: for Maximum Concentration / Predose Concentration: mean (SD)
Protocol: (§1) In this randomized, double-blind study, done at 87 sites in 13 countries, patients with stable, symptomatic chronic heart failure and left ventricular ejection fraction 40% or lower were recruited. Patients were randomly assigned equally, via an interactive web response system, to receive 25 mg oral omecamtiv mecarbil twice daily (fixed-dose group), 25 mg twice daily titrated to 50 mg twice daily guided by pharmacokinetics (pharmacokinetic-titration group), or placebo for 20 weeks. The maximum concentration of omecamtiv mecarbil in plasma (primary endpoint) and changes in cardiac function and ventricular diameters were assessed. This trial is registered with ClinicalTrials.gov, number NCT01786512.
All patients received study treatment or placebo for 20 weeks and were followed up at week 24 after randomization. Patients in the pharmacokinetic-titration group received 25 mg omecamtiv mecarbil twice daily for 2 weeks to reach a steady state. If the trough omecamtiv mecarbil concentration in plasma before the morning dose (predose concentration) at 2 weeks was less than 200 ng/mL, the dose was titrated up to 50 mg twice daily at week 8. If the predose concentration was 200 ng/mL or higher, patients continued taking 25 mg twice daily until the end of the study. To access the pharmacokinetics in this population more rigorously than permitted by just trough sampling, intensive pharmacokinetic sampling was done at the end of weeks 2 and 12, over a period of 8 h on each day.
(§2) The primary endpoint was the maximum concentration of omecamtiv mecarbil at the week 2 and 12 visits and the predose concentration at the week 2, 8, 12, 16, and 20 visits. Secondary endpoints were changes from baseline in systolic ejection time, stroke volume, left ventricular end-systolic and end-diastolic diameters, heart rate, and concentration of NT-proBNP in plasma at week 20. Additional prespecified exploratory echocardiographic endpoints included left ventricular fractional shortening, end-systolic and end-diastolic volumes, and ejection fraction. The clinical events committee adjudicated whether admissions to hospital and deaths and all episodes of myocardial ischaemia or infarction reported by investigators or based on an increase of cardiac troponin I concentration in plasma met the criteria for study endpoints.

[2] = test system: patients with stable, symptomatic chronic heart failure and left ventricular ejection fraction 40% or lower; assay: COSMIC-HF: changes in cardiac function, ventricular diameters, heart rate and NT-proBNP; format: in vivo, human; settings: for NT-proBNP concentration in plasma, difference versus placebo: 4 weeks after omecamtiv mecarbil was stopped
Protocol: as §1
(§3) Patients attended study clinics at weeks 2 and 8, after which visits were every 4 weeks until week 24. Transthoracic echocardiograms were done at baseline, week 12, and week 20 and analyzed centrally. Blood samples were obtained at specified visits for analysis in the central laboratory.
as §2
The standard deviations (SDs) for maximum and minimum concentrations of omecamtiv mecarbil in plasma were assumed to be in the range of 40-140 ng/mL.^6-8,11-13 On this basis, it was calculated that 142 patients in the pharmacokinetic-titration group would provide a two-sided 95% CI with half width of 6·6-23·0 ng/mL, assuming that 5% of patients would not have assessable concentrations of omecamtiv mecarbil, which was deemed sufficient for accurate population estimates of these concentrations. Previous work in a similar population of patients had shown that plasma concentrations of omecamtiv mecarbil as low as 100-200 ng/mL had some effect on cardiac function, but that the effect on stroke volume seemed to plateau with concentrations greater than 400 ng/mL, and that plasma concentrations greater than 1200 ng/mL were not clinically tolerated.^7 Thus, it was attempted to achieve a maximum concentration greater than 200 ng/mL and avoid exposures to concentrations greater than 1000 ng/mL. Additionally, with 150 patients in each group and significance set at α=0·05 (two-sided), it was estimated that the statistical power for detecting a treatment effect on the echocardiographic endpoints of systolic ejection time, stroke volume, and left ventricular end-systolic diameter would be more than 90%. Differences between groups for changes in echo cardio graphic variables, heart rate, and NT-proBNP concentrations from baseline were estimated with a repeated measures model fitted separately for each variable and that included the stratification factors of presence or absence of atrial fibrillation or flutter at randomisation, baseline value, treatment group, visit, and treatment group by visit interaction. An unstructured covariance matrix was used to account for the correlation between visits within patients. Least squares mean differences with 95% CIs of the mean relative to placebo are presented unless otherwise indicated. As the study was hypothesis generating, all p values are nominal with no multiplicity adjustment. This study is registered with ClinicalTrials.gov, number NCT01786512.

[3] = test system: patients with stable, symptomatic chronic heart failure and left ventricular ejection fraction 40% or lower; assay: COSMIC-HF: safety variables and adverse events; format: in vivo
Protocol: as §1, §3, §2

patients = settings: previous work, similar population of patients; cited from earlier work
[4] = Week 2, fixed-dose group (25 mg twice daily)
[5] = Week 12, fixed-dose group (25 mg twice daily)
[6] = Week 12, fixed-dose group (25 mg twice daily), listed as OM
[7] = Week 12, fixed-dose group, of 137 patients with measurements
[8] = Week 12, pharmacokinetic-titration group
[9] = Week 12, pharmacokinetic-titration group, listed as OM
[10] = Week 12, pharmacokinetic-titration group, of 127 patients with measurements
[11] = pharmacokinetic-titration group
[12] = week 20, pharmacokinetic-titration group
[13] = pharmacokinetic-titration OM group (n = 146)

With COC(=O)N1CCN(Cc2cccc(NC(=O)Nc3ccc(C)nc3)c2F)CC1 [omecamtiv mecarbil] the “Maximum Concentration” value [1, 4] was 212 (70.4) 33.2% ng/mL, the “Predose Concentration” value [1, 4] was 174 (62.2) 35.7% ng/mL and the “Predose Concentration” value ([1]; Week 2, pharmacokinetic-titration group (25 mg titrated to 50 mg twice daily)) was 179 (68.8) 38.4% ng/mL. The “Maximum Concentration” value ([1]; Week 2, pharmacokinetic-titration group) was 212 (81.0) 38.2% ng/mL, the “Predose Concentration” value ([1]; Week 8, fixed-dose group (25 mg twice daily)) was 156 (69.1) 44.2% ng/mL and the “Predose Concentration” value ([1]; Week 8, pharmacokinetic-titration group) was 161 (74.4) 46.1% ng/mL. The “Maximum Concentration” value [1, 5] was 200 (SD 71) ng/mL and 200 (71) ng/mL, the “Predose Concentration” value [1, 5] was 165 (SD 68) ng/mL and the “Maximum Concentration” value [1, 6] was 200 (71.1) 35.6% ng/mL. For the same compound, the “Predose Concentration” value [1, 6] was 165 (67.9) 41.3% ng/mL, the “Patients with maximum drug concentrations in plasma greater than or equal to 200 ng/mL, %” value [1, 7] was 46% and the “Patients with maximum drug concentrations in plasma greater than or equal to 200 ng/mL, number” value [1, 7] was 63. The “Maximum Concentration” value [1, 8] was 318 (129) ng/mL, the “Predose Concentration” value [1, 8] was 263 (116) ng/mL and the “Maximum Concentration” value [1, 9] was 318 (129) 40.5% ng/mL. The “Predose Concentration” value [1, 9] was 263 (116) 44.1% ng/mL, the “Patients with maximum drug concentrations in plasma greater than or equal to 200 ng/mL, %” value [1, 10] was 87% and the “Patients with maximum drug concentrations in plasma greater than or equal to 200 ng/mL, number” value [1, 10] was 110. For the same compound, the “Predose Concentration” value ([1]; Week 16, fixed-dose group (25 mg twice daily)) was 155 (69.0) 44.6% ng/mL, the “Predose Concentration” value ([1]; Week 16, pharmacokinetic-titration group) was 240 (120) 50.0% ng/mL and the “Predose Concentration” value ([1]; Week 20, fixed-dose group (25 mg twice daily)) was 149 (71.2) 47.8% ng/mL. The “Predose Concentration” value ([1]; Week 20, pharmacokinetic-titration group) was 239 (118) 49.5% ng/mL, the “Maximum observed concentration in plasma at any time during the study” value ([1]; fixed-dose group) was 453 ng/mL and the “Maximum observed concentration in plasma at any time during the study” value [1, 11] was 831 ng/mL. For the same compound, the “Patients with a maximum concentration greater than 750 ng/mL” value [1, 11] was “one”, the “NT-proBNP concentration in plasma, difference versus placebo” value ([2]; fixed-dose group) was -1327 pg/mL and the “NT-proBNP concentration in plasma, difference versus placebo” value [2, 11] was -1306 pg/mL. The “Systolic ejection times, average increases” value ([2]; chronic oral administration, across both omecamtiv mecarbil groups) was 11 to 25 ms, the “NT-proBNP concentration in plasma, least square mean difference versus placebo” value ([2]; week 20, fixed-dose group) was -822 pg/mL and the “Stroke volume, least square mean difference versus placebo” value ([2]; week 20, fixed-dose group) was 5 mL. For the same compound, the “Systolic ejection time, least square mean difference versus placebo” value ([2]; week 20, fixed-dose group) was 11 ms, the “Fractional shortening compared with placebo” value [2, 12] was “increases” and the “Left ventricular end-diastolic and end-systolic volumes compared with placebo” value [2, 12] was “reductions”. For the same compound, the “NT-proBNP concentration in plasma, least square mean difference versus placebo” value [2, 12] was -970 pg/mL, the “Stroke volume, least square mean difference versus placebo” value [2, 12] was 3.6 mL and 4 mL and the “Systolic ejection time, least square mean difference versus placebo” value [2, 12] was 25 ms. The “Frequencies of adverse events, serious adverse events and deaths across groups (versus placebo)” value ([3]; 20 weeks of treatment) was “did not differ; also recorded: similar”, the “Adjudicated clinical events: Cardiovascular death, %” value ([3]; fixed-dose OM group (n = 150)) was “(1%)” and the “Adjudicated clinical events: Cardiovascular death, number” value ([3]; fixed-dose OM group (n = 150)) was 1. The “Adjudicated clinical events: Death, %” value ([3]; fixed-dose OM group (n = 150)) was “(1%)”, the “Adjudicated clinical events: Death, number” value ([3]; fixed-dose OM group (n = 150)) was 1 and the “Adjudicated clinical events: Hospital admission: Chest paint†, %” value ([3]; human, in vivo, 20 weeks) was “(1%)”. For the same compound, the “Adjudicated clinical events: Hospital admission: Chest paint†, number” value ([3]; human, in vivo, 20 weeks) was 2, the “Adjudicated clinical events: Hospital admission: Myocardial infarction, %” value ([3]; human, in vivo, 20 weeks) was “(1%)” and the “Adjudicated clinical events: Hospital admission: Myocardial infarction, number” value ([3]; human, in vivo, 20 weeks) was 1. The “Adjudicated clinical events: Hospital admission: Unstable angina, %” value ([3]; human, in vivo, 20 weeks) was “(1%)”, the “Adjudicated clinical events: Total myocardial infarction**, %” value ([3]; human, in vivo, 20 weeks) was “(1%)” and the “Serious adverse events: Acute cardiac failure, %” value ([3]; human, in vivo, 20 weeks) was “(2%)”. The “Serious adverse events: Acute cardiac failure, number” value ([3]; human, in vivo, 20 weeks) was 3, the “Serious adverse events: Cardiac, %” value ([3]; human, in vivo, 20 weeks) was “(12%)” and the “Serious adverse events: Congestive cardiac failure, %” value ([3]; human, in vivo, 20 weeks) was “(2%)”. The “Serious adverse events: Congestive cardiac failure, number” value ([3]; human, in vivo, 20 weeks) was 3, the “Serious adverse events: Ventricular tachycardia, %” value ([3]; human, in vivo, 20 weeks) was “(1%)” and the “Adjudicated clinical events: Hospital admission: Myocardial infarction, number” value ([3]; in vivo) was 0. For the same compound, the “Cardiac troponin | concentrations: Change to Week 24” value ([3]; in vivo) was 0 ng/mL, the “Share of maximum cardiac troponin I increases from baseline that were less than 0·1 ng/mL” value ([3]; in vivo) was 92% and the “Share of maximum cardiac troponin I increases from baseline that were less than 0·2 ng/mL” value ([3]; in vivo) was 97%. The “Time for plasma cardiac troponin I to return to baseline levels after discontinuing” value ([3]; in vivo) was at most 4 weeks, the “Troponin-triggered potential adverse events deemed myocardial ischaemia or myocardial infarction on adjudication” value ([3]; in vivo) was “none” and the “Adjudicated clinical events: Cardiovascular death, %” value [3, 13] was “(1%)”. For the same compound, the “Adjudicated clinical events: Cardiovascular death, number” value [3, 13] was 2, the “Adjudicated clinical events: Death, %” value [3, 13] was “(2%)” and the “Adjudicated clinical events: Death, number” value [3, 13] was 3. The “Plasma concentrations at which the effect on stroke volume seemed to plateau” value (patients) was “greater than 400 ng/mL”, the “Plasma concentrations not clinically tolerated” value (patients) was “greater than 1200 ng/mL” and the “Plasma concentrations that had some effect on cardiac function (as low as)” value (patients) was 100 to 200 ng/mL.
